From ChEMBL document CHEMBL1201862, “PubChem BioAssay data set” (2004) come the findings set out here.

For test [1], the target named is T1, Coagulation factor XII (Homo sapiens, UniProt P00748).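 Note: activated factor XIIa alpha cleaving a fluorogenic AMC peptide substrate; inhibitor potency from loss of enzyme activity.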
T1 sequence (P00748 whole entry): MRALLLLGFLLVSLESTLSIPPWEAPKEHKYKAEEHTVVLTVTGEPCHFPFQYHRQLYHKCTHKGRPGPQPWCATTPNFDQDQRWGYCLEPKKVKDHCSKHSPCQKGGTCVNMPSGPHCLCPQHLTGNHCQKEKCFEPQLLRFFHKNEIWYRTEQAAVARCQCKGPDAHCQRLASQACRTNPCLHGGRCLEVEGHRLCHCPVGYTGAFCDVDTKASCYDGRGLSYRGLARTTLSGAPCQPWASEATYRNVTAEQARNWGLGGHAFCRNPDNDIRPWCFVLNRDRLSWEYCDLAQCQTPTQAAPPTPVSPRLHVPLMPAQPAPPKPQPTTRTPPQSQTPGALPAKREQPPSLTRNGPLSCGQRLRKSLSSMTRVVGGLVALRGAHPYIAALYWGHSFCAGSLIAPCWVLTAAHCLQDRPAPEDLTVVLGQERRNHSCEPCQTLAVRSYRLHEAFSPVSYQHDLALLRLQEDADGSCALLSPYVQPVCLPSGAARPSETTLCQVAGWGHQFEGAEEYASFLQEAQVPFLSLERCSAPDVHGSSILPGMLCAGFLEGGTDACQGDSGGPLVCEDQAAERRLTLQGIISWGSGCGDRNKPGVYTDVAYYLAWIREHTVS
Format: functional.

For test [2], the system named is HEK293. Description: NOD1 signaling inhibitors, primary screen, cell-based, luminescence, uHTS (AID 1578). In kind it is functional. The following applies: Homo sapiens.
The subject of test [3] is HEK293. The test is described as follows: cells. Format: functional, cell-based. The following applies: Homo sapiens.
The subject of test [4] is HEK293. Description: cells. The following applies: Homo sapiens. In kind it is functional, cell-based. The source holds these as a separate data set.
Test [5] addresses Nucleotide-binding oligomerization domain-containing protein 2 (Homo sapiens, UniProt Q9HC29). Description: NOD2 signaling inhibitors, cell-based, luminescence, uHTS, HEK293 (AID 1566). In kind it is functional.
The subject of test [6] is HEK293. Description: NOD2 signaling inhibitors in MDP-stimulated cells, cell-based, uHTS, luminescence (AID 2001). In kind it is functional. The following applies: Homo sapiens.
Test [7] concerns HEK293. Description: cells. Format: functional, cell-based. The following applies: Homo sapiens. The source holds these as a separate data set.
The target in test [8] is T2, Leucine aminopeptidase (Plasmodium falciparum 3D7, UniProt Q8IL11).
T2 sequence (Q8IL11 whole entry): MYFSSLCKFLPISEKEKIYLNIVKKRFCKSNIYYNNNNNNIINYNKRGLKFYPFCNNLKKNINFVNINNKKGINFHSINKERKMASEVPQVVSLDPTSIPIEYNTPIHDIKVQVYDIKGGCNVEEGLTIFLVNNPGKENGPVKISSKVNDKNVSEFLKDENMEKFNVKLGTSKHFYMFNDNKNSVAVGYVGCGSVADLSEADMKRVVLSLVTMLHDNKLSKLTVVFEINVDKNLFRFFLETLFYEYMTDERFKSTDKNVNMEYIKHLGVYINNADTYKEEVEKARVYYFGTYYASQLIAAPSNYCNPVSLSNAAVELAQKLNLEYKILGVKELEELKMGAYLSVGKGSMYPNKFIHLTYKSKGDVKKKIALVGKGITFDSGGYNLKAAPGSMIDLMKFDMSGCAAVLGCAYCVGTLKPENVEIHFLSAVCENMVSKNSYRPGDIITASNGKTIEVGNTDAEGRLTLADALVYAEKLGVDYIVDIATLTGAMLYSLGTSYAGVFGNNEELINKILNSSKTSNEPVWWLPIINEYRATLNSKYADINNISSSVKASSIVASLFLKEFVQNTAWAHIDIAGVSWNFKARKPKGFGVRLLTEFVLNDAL
The test is described as follows: P. falciparum M17LAP inhibitors, primary screen, biochemical, fluorogenic H-Leu-NHMec substrate, 1536-well (AID 1619). In kind it is functional.

A short description of test [9]: Luminescence Cell-Based Dose Confirmation HTS to Identify Activators of 5'UTR Stem-Loop Driven Alpha-Synuclein mRNA Translation in H4 Neuroglioblastoma Cells. [Related pubchem assays: 1829 (Project Summary), 1814 (Primary HTS)]. In kind it is functional.
A short description of test [10]: Luminescence Cell-Based Dose Response HTS to Identify Activators of Luciferase Translation or Activity in H4 […] Cells. [Related pubchem assays: 1829 (Project Summary), 1814 (Primary HTS)]. Format: functional.
Test [11] relates to H4. The test is described as follows: Luminescence Cell-Based Dose Response HTS to Identify Activators of 5'UTR Stem-Loop Driven Prion Protein mRNA Translation in H4 Neuroglioblastoma Cells. [Related pubchem assays: 1829 (Project Summary), 1814 (Primary HTS)]. Format: functional. The following applies: Homo sapiens.
Test [12] in a line: THP-1 cell cytotoxicity, dose response, cytotoxicity control for non-replicating M. tuberculosis project (AID 489025). Format: functional.
A short description of test [13]: HepG2 cell cytotoxicity, dose response, cytotoxicity control for non-replicating M. tuberculosis project (AID 489018). In kind it is functional. The following applies: Mycobacterium tuberculosis.
Test [14] can be described thus: Vero E6 cell cytotoxicity, dose response, cytotoxicity control for non-replicating M. tuberculosis project, secondary assay (AID 492998). Format: functional, VeroE6. The following applies: Vero C1008.
In test [15] the target is Voltage-dependent T-type calcium channel subunit alpha-1H (Homo sapiens, UniProt O95180). Format: functional.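 Note: channel activity triggered by adding a high calcium stimulation buffer.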
The target of test [16] is Heat shock protein HSP 90-alpha (Homo sapiens, UniProt P07900). In kind it is functional, organism-based.
Test [17] in a line: cells. In kind it is functional.
Test [18] has as its target T3, DNA repair and recombination protein RAD54-like (Homo sapiens, UniProt Q92698).
T3 sequence (Q92698 whole entry): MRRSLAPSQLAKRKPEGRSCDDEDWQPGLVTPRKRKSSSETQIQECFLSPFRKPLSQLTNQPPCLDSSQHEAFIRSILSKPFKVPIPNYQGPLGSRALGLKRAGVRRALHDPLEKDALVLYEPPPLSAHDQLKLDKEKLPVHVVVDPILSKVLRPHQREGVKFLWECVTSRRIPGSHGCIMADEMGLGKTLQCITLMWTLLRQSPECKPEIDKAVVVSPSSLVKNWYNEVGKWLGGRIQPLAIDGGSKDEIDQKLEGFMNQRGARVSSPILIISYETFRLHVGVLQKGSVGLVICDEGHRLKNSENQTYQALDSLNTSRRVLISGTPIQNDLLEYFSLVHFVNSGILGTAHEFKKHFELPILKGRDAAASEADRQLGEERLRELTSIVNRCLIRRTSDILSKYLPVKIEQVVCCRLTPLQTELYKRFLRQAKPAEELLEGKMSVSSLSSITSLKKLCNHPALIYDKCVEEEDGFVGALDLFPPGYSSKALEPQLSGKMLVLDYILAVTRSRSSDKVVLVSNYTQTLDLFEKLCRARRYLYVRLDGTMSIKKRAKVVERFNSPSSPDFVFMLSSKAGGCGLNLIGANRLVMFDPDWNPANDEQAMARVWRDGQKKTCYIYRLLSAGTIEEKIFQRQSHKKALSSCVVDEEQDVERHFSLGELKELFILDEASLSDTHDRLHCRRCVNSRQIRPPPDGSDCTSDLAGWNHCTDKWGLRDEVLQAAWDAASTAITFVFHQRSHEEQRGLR
Description: inhibitors of human RAD54 branch migration, confirmation, biochemical, fluorescence, cherry-picked samples, dose series (AID 651657). In kind it is functional.

A short description of test [19]: Shn3 3'UTR reporter inhibitors, dose response, cell-based, Clone20 osteoblasts, firefly luciferase, cherry-picked (AID 624132).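 Note: firefly luciferase luminescence from reporter carrying the Shn3 3'UTR in osteoblasts.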 In kind it is functional.
Test [20] can be described thus: HepG2 cell cytotoxicity, dose response, cytotoxicity control for Shn3 inhibitor project, CellTiter-Glo, cherry-picked (AID 624134). In kind it is functional, cell-based. (In ATP-based viability assays light output follows the ATP content of the culture.)
Test [21] in a line: control 3'UTR Renilla luciferase suppression, dose response, counter-screen for Shn3 inhibitor project, cell-based, Clone20-Shn3RL, cherry-picked (AID 624133). Format: functional. On the technique in general: The purpose of a counterscreen is to sort out artefacts and off-target activity.
Test [22] can be described thus: inhibitors of HIV Env-driven cell fusion, dose response, cherry-pick (AID 652057). In kind it is functional, cell-based.
The nature of test [23]: ZM109 Env clade C HIV-1 fusion inhibitors, dose response, HeLa effector, CEM target cells, luciferase, cherry-pick (AID 652058). In kind it is functional, cell-based.
Test [24] in a line: inhibitors of clade B AD8 Env fusion, dose response, cell-based, cherry-pick (AID 652062).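 Note: luciferase signal from cell-cell fusion driven by HIV-1 clade B AD8 Env; potency is for inhibitors of fusion seen as a drop in luminescence.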 In kind it is functional.

The source made the active and inactive calls.

Nucleotide-binding oligomerization domain-containing protein 2, sequence (Q9HC29 whole entry, the tested form may be a part): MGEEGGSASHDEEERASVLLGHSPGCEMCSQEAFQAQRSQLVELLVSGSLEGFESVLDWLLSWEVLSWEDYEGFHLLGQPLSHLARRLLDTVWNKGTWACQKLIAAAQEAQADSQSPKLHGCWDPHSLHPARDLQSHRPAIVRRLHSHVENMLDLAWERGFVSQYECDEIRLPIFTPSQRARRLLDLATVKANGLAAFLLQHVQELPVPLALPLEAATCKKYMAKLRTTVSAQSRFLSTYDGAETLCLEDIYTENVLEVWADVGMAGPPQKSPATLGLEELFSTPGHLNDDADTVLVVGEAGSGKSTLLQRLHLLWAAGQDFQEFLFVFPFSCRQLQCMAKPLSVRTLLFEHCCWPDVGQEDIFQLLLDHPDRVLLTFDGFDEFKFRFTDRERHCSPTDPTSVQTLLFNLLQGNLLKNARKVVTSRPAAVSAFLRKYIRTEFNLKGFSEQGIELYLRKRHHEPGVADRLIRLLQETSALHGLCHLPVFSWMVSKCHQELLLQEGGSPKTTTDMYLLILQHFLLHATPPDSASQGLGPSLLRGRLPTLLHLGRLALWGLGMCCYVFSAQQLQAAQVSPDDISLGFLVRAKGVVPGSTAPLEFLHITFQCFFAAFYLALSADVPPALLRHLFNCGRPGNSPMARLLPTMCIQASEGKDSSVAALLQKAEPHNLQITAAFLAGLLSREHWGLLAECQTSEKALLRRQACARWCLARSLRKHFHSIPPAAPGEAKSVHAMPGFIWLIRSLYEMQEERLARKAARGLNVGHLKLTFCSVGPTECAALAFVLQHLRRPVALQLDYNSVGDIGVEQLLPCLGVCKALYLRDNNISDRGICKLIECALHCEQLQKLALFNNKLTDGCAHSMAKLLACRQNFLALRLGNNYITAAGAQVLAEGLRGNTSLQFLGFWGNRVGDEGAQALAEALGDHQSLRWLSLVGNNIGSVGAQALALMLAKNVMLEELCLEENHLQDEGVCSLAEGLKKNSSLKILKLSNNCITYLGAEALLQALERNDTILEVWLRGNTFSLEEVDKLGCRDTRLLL
Voltage-dependent T-type calcium channel subunit alpha-1H, sequence (O95180 whole entry): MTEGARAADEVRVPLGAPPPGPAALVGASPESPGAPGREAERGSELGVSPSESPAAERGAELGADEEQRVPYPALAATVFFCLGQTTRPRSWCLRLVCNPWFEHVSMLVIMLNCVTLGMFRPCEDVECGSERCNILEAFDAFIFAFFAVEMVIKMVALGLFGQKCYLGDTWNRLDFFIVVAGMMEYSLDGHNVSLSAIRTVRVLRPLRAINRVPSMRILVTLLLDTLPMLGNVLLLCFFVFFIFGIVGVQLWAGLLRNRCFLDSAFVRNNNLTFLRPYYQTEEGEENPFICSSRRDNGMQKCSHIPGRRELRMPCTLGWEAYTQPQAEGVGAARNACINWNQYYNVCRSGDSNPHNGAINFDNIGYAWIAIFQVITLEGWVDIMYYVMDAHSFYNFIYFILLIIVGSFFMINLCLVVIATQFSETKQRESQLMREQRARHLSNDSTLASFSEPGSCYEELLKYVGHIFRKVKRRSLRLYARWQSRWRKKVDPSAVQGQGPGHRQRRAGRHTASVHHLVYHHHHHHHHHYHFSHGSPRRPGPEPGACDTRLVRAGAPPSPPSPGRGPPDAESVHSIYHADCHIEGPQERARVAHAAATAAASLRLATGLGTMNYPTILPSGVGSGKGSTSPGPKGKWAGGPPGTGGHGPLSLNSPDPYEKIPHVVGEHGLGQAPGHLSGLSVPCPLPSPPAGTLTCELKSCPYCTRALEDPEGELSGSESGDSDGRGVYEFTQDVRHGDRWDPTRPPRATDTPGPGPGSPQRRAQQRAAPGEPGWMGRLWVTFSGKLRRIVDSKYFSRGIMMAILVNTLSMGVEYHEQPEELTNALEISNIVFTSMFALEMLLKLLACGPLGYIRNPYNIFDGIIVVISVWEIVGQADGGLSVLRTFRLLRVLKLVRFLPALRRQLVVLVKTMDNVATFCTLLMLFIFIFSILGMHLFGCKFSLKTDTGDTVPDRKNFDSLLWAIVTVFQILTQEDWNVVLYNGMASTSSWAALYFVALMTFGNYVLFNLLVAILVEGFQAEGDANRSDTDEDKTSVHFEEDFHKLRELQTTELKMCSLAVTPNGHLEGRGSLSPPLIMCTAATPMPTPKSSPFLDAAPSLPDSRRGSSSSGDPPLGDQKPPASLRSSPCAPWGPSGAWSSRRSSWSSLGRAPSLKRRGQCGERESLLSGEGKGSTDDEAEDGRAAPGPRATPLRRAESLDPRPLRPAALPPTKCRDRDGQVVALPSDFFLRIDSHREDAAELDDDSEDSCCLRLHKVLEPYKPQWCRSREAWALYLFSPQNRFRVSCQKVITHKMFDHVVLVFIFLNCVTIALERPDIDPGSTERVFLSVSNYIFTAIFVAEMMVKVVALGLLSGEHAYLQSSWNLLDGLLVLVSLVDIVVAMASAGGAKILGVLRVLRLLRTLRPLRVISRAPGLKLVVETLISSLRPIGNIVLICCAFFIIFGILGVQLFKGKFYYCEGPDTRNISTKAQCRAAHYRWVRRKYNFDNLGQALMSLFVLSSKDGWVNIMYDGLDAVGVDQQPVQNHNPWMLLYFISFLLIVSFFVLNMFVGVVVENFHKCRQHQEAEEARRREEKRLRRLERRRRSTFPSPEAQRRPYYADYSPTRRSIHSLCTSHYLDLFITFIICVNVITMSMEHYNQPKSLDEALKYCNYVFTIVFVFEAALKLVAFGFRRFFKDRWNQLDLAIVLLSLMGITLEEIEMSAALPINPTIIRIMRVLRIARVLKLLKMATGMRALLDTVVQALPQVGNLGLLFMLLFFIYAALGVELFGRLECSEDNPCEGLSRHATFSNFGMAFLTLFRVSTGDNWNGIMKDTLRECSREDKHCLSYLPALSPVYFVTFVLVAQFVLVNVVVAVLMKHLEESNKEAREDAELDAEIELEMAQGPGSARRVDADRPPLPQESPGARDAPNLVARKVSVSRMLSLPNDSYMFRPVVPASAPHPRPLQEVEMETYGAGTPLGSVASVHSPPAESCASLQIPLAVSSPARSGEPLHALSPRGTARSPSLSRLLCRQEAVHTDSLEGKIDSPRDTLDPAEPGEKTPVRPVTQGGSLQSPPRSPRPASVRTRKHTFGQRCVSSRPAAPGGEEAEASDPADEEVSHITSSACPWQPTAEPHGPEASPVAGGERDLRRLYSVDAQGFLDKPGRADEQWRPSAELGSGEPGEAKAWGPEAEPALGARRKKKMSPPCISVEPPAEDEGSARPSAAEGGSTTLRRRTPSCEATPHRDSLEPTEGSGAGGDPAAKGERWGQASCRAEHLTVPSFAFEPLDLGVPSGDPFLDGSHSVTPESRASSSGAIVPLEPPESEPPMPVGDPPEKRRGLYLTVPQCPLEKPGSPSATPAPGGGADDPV

`COc1ccc(-n2ncc3c(NCc4ccccn4)ncnc32)cc1`: in [1], the IC50 – broadly, the midpoint of a concentration-inhibition curve – is > 50 µM (inactive).

With `Cc1cc(C(=O)COc2cccnc2[N+](=O)[O-])c(C)n1Cc1ccco1`, the EC50 (in general, the concentration giving half of the maximal effect) in [2] is > 20 µM (inactive); in [5], 13.1 µM (active). Besides, the IC50 in test [3] is 18.2 µM (active); in [4], > 20 µM (inactive); in test [6] it was > 20 µM (inactive); in test [7] it was > 20 µM (inactive).

As for `CSC1=NSC2=NC(=O)/C(=C\c3cccs3)C(=N)N12`, the IC50 in [8] is 32.2 µM (active). For the same molecule, the EC50 in test [9] is 8.94 µM (active); in test [10] it was 0.418 µM (active); in test [11] it was 75 µM (active). The CC50 (as a rule, the concentration giving 50% cytotoxicity) in test [12] is > 40 µM (active); in test [13] it was > 20 µM (active); in test [14] it was > 20 µM (active).

In the case of `Cc1ccc(CNC(=O)c2ccc(Cn3nc(C)c(Cl)c3C)o2)cc1`, the EC50 in test [15] was 5.77 µM (active). In test [16], the AC50 (usually the concentration at which the activity in the assay is half-maximal) is 8.04 µM (active).

In the case of `O=C(NCCCN1CCCC1)c1cc2c(Cl)nc3ccccc3c2s1`, the CC50 is 38.7 µM (active) in [12], > 20 µM (active) in test [13] and > 20 µM (active) in test [14]. In [17], the IC50 is 30.8 µM (active). Also, in [18], the AC50 is 7.11 µM (active).

As to `Cc1cc(Cl)c(S(=O)(=O)N2CCSCC2)cc1OCC(=O)NC1CCCCC1`, the EC50 in test [2] was 2.58 µM (active); in test [5], 7.37 µM (active). Also, the IC50 in test [3] is 4.29 µM (active); in test [4] it was 9.2 µM (active); in [6], 3.6 µM (active); in test [7], > 20 µM (inactive). The AC50 in [19] is 4.11 µM (active); in test [20], 4.04 µM (active); in test [21], 5.08 µM (active); in test [22], 31.6 µM (active); in test [23], 1.06 µM (active); in test [24] it was 4.1 µM (active).
